The results in this text go back to EP2676962A1, “Derivatives of 1-aminoalkylphosphonate diaryl esters, method of 1-aminoalkylphosphonate diaryl ester derivatives preparation and their application” (priority 2012, dated 2013).

Like-named read-outs stand apart in the source and are kept apart here.

Assay type in all cases: biochemical
In assay [1] the target is T1, human neutrophil elastase (HNE) (Homo sapiens, UniProt P08246).
T1 sequence (P08246 30-267): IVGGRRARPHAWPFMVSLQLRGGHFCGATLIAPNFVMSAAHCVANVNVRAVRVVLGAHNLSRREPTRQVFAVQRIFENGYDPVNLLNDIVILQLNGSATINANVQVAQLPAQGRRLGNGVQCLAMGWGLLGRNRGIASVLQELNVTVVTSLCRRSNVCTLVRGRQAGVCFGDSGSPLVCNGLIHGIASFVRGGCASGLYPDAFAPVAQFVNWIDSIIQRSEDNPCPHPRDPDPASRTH
Description: Inhibitory activity toward human neutrophil elastase, fluorogenic substrate, microplate reader. The protocol: (§1) The biological activity of peptidyl derivatives of phosphonic analogs of valine, alanine, phenylalanine, 4-guanidinephenylglycine, leucine, and 1-aminobutyric acid, containing the N-terminal biotin residue were tested for their ability to inhibit proteolytic activity of selected serine proteases, and the control cysteine proteases. All tests were performed using a microplate reader. As enzyme substrates fluorescent peptides were used. The method to measure the activity of the compounds obtained are described below for each of the enzymes tested: human neutrophil elastase (HNE), porcine pancreatic elastase (PPE), subtilisin (Sub), cathepsin G (CatG), proteinase 3 (PR3), chymotrypsin (ChTry) trypsin (Try), papain (Pap) and cathepsin L (CatL). Measurement of the inhibitory activity was performed at different inhibitor concentrations ranging from 12.5 nM to 2000nm.
Measurement of inhibitory activity of compounds toward human neutrophil elastase (HNE).
The inhibitory activity assay is performed at 37°C in 0,01M HEPES, 0,5M NaCl, 0,03% Triton X-100 buffer, pH 7,5, within 10 min after initial pre-incubation of the enzyme with inhibitor tested at 37°C for 10 min. The enzyme concentration is 0,0025U/ml. Substrate used Me-Suc-Ala-Ala-Pro-Val-AFC at 25µM. Measurement is taken at an excitation wavelength of 400nm and 505nm emission.
(§2) The IC50 value is the concentration of inhibitor required to inhibit half of the enzyme activity after 10 minutes incubation.

The target of assay [2] is porcine pancreatic elastase (PPE) (Sus scrofa, UniProt P00772). Description: Inhibitory activity toward porcine pancreatic elastase, fluorogenic substrate, microplate reader. The protocol: as §1
porcine pancreatic elastase (PPE), sequence (P00772 27-266): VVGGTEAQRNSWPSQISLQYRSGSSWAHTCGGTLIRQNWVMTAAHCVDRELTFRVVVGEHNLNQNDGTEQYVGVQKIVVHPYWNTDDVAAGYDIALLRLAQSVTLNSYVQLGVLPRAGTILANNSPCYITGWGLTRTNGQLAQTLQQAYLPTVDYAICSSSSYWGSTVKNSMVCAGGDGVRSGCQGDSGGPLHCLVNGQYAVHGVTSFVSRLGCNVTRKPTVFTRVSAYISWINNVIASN
Measurement of inhibitory activity of compounds toward porcine pancreatic elastase (PPE).
The inhibitory activity assay is performed at 37°C in 0,01M Tris-HCl, 0,05% Triton X-100 buffer, pH 8,5, within 10 min after initial pre-incubation of the enzyme with inhibitor tested at 37°C for 10 min. The enzyme concentration is 60nM. Substrate used Me-Suc-Ala-Ala-Pro-Val-AMC at 100µM. Measurement is taken at an excitation wavelength of 350nm and 460nm emission.
as §2

In a further assay the target is T2, proteinase 3 (PR3) (Homo sapiens, UniProt P24158).
T2 sequence (P24158 28-248): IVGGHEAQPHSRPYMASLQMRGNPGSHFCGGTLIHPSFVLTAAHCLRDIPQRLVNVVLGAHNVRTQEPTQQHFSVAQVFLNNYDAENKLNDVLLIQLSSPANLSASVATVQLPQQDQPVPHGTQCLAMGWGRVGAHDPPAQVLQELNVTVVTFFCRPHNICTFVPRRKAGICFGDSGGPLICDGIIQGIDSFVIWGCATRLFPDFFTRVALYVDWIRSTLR
Description: Inhibitory activity toward proteinase 3, fluorogenic substrate, microplate reader. As to the method:
as §1
Measurement of inhibitory activity of compounds toward proteinase 3(PR3).
The inhibitory activity assay is performed at 37°C in 0,1M Tric-HCl, 0,5M NaCl buffer, pH 7,5, within 10 min after initial pre-incubation of the enzyme with inhibitor tested at 37°C for 10 min. The enzyme concentration is 17nM. Substrate used Abz-Tyr-Tyr-Abu-Anb-NH2 at 30µM. Measurement is taken at an excitation wavelength of 325nm and 400nm emission.
as §2

For another assay, the target named is T3, cathepsin G (CatG) (Homo sapiens, UniProt P08311).
T3 sequence (P08311 21-244): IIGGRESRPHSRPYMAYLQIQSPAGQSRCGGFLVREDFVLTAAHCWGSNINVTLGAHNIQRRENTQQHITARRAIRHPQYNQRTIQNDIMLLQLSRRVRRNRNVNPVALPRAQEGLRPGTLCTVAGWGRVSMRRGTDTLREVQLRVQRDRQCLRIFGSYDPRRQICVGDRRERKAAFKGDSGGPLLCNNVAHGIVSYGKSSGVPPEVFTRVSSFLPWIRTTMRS
As to the kind of experiment: Inhibitory activity toward cathepsin G, fluorogenic substrate, microplate reader. The protocol:
as §1
Measurement of inhibitory activity of compounds toward cathepsin G (CatG).
The inhibitory activity assay is performed at 37°C in 0,1M Tric-HCl, 0,5M NaCl buffer, pH 7,5, within 10 min after initial pre-incubation of the enzyme with inhibitor tested at 37°C for 10 min. The enzyme concentration is 100nM. Substrate used MCA-Phe-Val-Thr-Gnf-Ser-Trp-Anb-NH2 at 2.5µM. Measurement is taken at an excitation wavelength of 325nm and 400nm emission.
as §2

The target of the next assay is chymotrypsin (ChTry) (Bos taurus, UniProt P00766). As to the kind of experiment: Inhibitory activity toward chymotrypsin, fluorogenic substrate, microplate reader. The conditions noted are these: 10 min pre-incubation at 37°C, pH 7,5, Suc-Ala-Ala-Pro-Phe-AMC 5µM; NI = brak inhibicji (no inhibition). The protocol: as §1
Measurement of inhibitory activity of compounds toward […] (ChyTry).
The inhibitory activity assay is performed at 37°C in 0,1M HEPES, 0,5M NaCl buffer, pH 7,5, within 10 min after initial pre-incubation of the enzyme with inhibitor tested at 37°C for 10 min. The enzyme concentration is 3nM. Substrate used Suc-Ala-Ala-Pro-Phe-AMC at 5µM. Measurement is taken at an excitation wavelength of 350nm and 460nm emission.
as §2

The next assay deals with subtilisin (Sub) (Bacillus licheniformis, UniProt P00780). Description: Inhibitory activity toward subtilisin, fluorogenic substrate, microplate reader. The conditions noted are these: for Sub Kobs/[I]: 10 min pre-incubation at 37°C, pH 7,5, Me-Suc-Ala-Ala-Pro-Phe-AMC 5µM, NI = brak inhibicji (no inhibition). The protocol:
as §1
Measurement of inhibitory activity of compounds toward subtilisin (Sub).
The inhibitory activity assay is performed at 37°C in 0,05M Tris-HCl, 1M NaCl, 0,01% Triton X-100 buffer, pH 7,5, within 10 min after initial pre-incubation of the enzyme with inhibitor tested at 37°C for 10 min. The enzyme concentration is 5nM. Substrate used Me-Suc-Ala-Ala-Pro-Phe-AMC at 5µM. Measurement is taken at an excitation wavelength of 350nm and 460nm emission.
as §2

The mark [3] stands for this setting: read-out: HNE IC50, 10 min pre-incubation at 37°C, pH 7,5, Me-Suc-Ala-Ala-Pro-Val-AFC 25µM, NI = brak inhibicji (no inhibition).
[4] abbreviates: 10 min pre-incubation at 37°C, pH 8,5, Me-Suc-Ala-Ala-Pro-Val-AMC 100µM, NI = brak inhibicji (no inhibition).
Where [5] appears, read: read-out: PR3 IC50, 10 min pre-incubation at 37°C, pH 7,5, Abz-Tyr-Tyr-Abu-Anb-NH2 30µM, NI = brak inhibicji (no inhibition).
Where [6] appears, read: read-out: Cat G IC50, 10 min pre-incubation at 37°C, pH 7,5, MCA-Phe-Val-Thr-Gnf-Ser-Trp-Anb-NH2 2.5µM, NI = brak inhibicji (no inhibition).
[7] abbreviates: 10 min pre-incubation at 37°C, pH 7,5, Me-Suc-Ala-Ala-Pro-Val-AFC 25µM, NI = brak inhibicji (no inhibition).
The mark [8] stands for this setting: read-out: PPE IC50, 10 min pre-incubation at 37°C, pH 8,5, Me-Suc-Ala-Ala-Pro-Val-AMC 100µM, NI = brak inhibicji (no inhibition).
The mark [9] stands for this setting: 10 min pre-incubation at 37°C, pH 7,5, MCA-Phe-Val-Thr-Gnf-Ser-Trp-Anb-NH2 2.5µM, NI = brak inhibicji (no inhibition).

subtilisin (Sub), sequence (P00780 106-379): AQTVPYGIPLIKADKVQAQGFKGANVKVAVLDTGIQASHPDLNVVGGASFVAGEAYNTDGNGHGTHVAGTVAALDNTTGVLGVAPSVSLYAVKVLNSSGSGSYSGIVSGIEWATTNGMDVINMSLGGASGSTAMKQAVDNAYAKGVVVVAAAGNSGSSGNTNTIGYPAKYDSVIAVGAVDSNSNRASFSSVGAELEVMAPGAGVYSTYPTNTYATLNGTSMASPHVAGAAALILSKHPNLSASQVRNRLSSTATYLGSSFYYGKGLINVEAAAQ

Regarding `COc1ccc(OP(=O)(Oc2ccc(OC)cc2)C(CC(C)C)NC(=O)C2CCCN2C(=O)C(NC(=O)CCCCC2SCC3NC(=O)NC32)C(C)C)cc1` (centres unmarked) [Compound 5, bis(4-methoxyphenyl) (3-methyl-1-(1-(3-methyl-2-(5-(2-oxohexahydro-1H-thieno[3,4-d]imidazol-4-yl)pentanamido)butanoyl)pyrrolidine-2-carboxamido)butyl)phosphonate], the concentration for half-maximal inhibition (IC50) – broadly, the concentration that gives 50% inhibition – in assay [1] (setting [3]) is more than 5000 nM; in assay [2], 5000 nM; at proteinase 3 (PR3) (setting [5]) it was more than 5000 nM; on cathepsin G (CatG) (setting [6]), more than 5000 nM; on subtilisin (Sub), 47.9 ± 0.57 nM. In assay [2] (setting [4]), the “PPE Kobs/[I]” value is 2*10^2 M^-1S^-1. Moreover, the “ChyTr Kobs/[I]” value on chymotrypsin (ChTry) is on record as 7.4*10^3 M^-1S^-1. Further, the “Sub Kobs/[I]” value at subtilisin (Sub) is 2.4*10^4 M^-1S^-1.

Turning to `CC(C)C(NC(=O)CCCCC1SCC2NC(=O)NC21)C(=O)N1CCCC1C(=O)NC(C(C)C)P(=O)(Oc1ccccc1)Oc1ccccc1` (centres unmarked) [Compound 2, diphenyl 2-methyl-1-(1-(3-methyl-2-(5-(2-oxohexahydro-1H-thieno[3,4-d]imidazol-4-yl)pentanamido)butanoyl)pyrrolidine-2-carboxamido)propylphosphonate], the IC50 in assay [1] was 6.5 ± 0.3 nM; in assay [2], 246 ± 30.5 nM; at proteinase 3 (PR3), 728 ± 44 nM; on cathepsin G (CatG) (setting [6]), more than 5000 nM; at subtilisin (Sub) it was 415 ± 17 nM. The “HNE Kobs/[I]” value in assay [1] (setting [7]) is listed as 1.8*10^5 M^-1S^-1. Also, the “PPE Kobs/[I]” value in assay [2] (setting [4]) is listed as 4.7*10^3 M^-1S^-1. In addition, the “PR3 Kobs/[I]” value on proteinase 3 (PR3) (10 min pre-incubation at 37°C, pH 7,5, Abz-Tyr-Tyr-Abu-Anb-NH2 30µM, NI = brak inhibicji (no inhibition)) is on record as 3.2*10^3 M^-1S^-1. Besides, on subtilisin (Sub), the “Sub Kobs/[I]” value is on record as 2.8*10^3 M^-1S^-1.

With `CSc1ccc(OP(=O)(Oc2ccc(SC)cc2)C(C)NC(=O)C2CCCN2C(=O)C(NC(=O)CCCCC2SCC3NC(=O)NC32)C(C)C)cc1` (centres unmarked) [Compound 4, bis(4-(methylthio)phenyl) 1-(1-(3-methyl-2-(5-(2-oxohexahydro-1H-thieno[3,4-d]imidazol-4-yl)pentanamido)butanoyl)pyrrolidine-2-carboxamido)ethylphosphonate], the IC50 in assay [1] was 5.55 ± 0.25 nM; in assay [2], 136 ± 7.5 nM; at proteinase 3 (PR3) (setting [5]) it was more than 5000 nM; at cathepsin G (CatG) (setting [6]), more than 5000 nM; against subtilisin (Sub), 40.2 ± 0.01 nM. Also, in assay [1] (setting [7]), the “HNE Kobs/[I]” value is 2.1*10^5 M^-1S^-1. For the same compound, in assay [2] (setting [4]), the “PPE Kobs/[I]” value was 8.5*10^3 M^-1S^-1. In addition, on subtilisin (Sub), the “Sub Kobs/[I]” value is 2.9*10^4 M^-1S^-1.

On to `CC(C)C(NC(=O)CCC(=O)NCCCCCNC(=O)CCCCC1SCC2NC(=O)NC21)C(=O)N1CCCC1C(=O)NC(Cc1ccccc1)P(=O)(Oc1ccccc1)Oc1ccccc1` (centres unmarked) [Compound 10, diphenyl (1-(1-(3-methyl-2-(4-oxo-4-((5-(5-(2-oxohexahydro-1H-thieno[3,4-d]imidazol-4-yl)pentanamido)pentyl)amino)butanamido)butanoyl)pyrrolidine-2-carboxamido)-2-phenylethyl)phosphonate], for which the concentration for half-maximal inhibition (IC50) in assay [1] (setting [3]) is more than 5000 nM; in assay [2] (setting [8]) it was more than 5000 nM; at proteinase 3 (PR3) (setting [5]), more than 5000 nM; on cathepsin G (CatG), 300 ± 0.5 nM; against subtilisin (Sub), 39.9 ± 4.6 nM. The “Cat G Kobs/[I]” value on cathepsin G (CatG) (setting [9]) was 3.8*10^3 M^-1S^-1. For the same compound, on chymotrypsin (ChTry), the “ChyTr Kobs/[I]” value is 7.0*10^4 M^-1S^-1. The “Sub Kobs/[I]” value on subtilisin (Sub) is 2.9*10^4 M^-1S^-1.

Take `CC(C)C(NC(=O)CCCCC1SCC2NC(=O)NC21)C(=O)N1CCCC1C(=O)NC(Cc1ccccc1)P(=O)(Oc1ccccc1)Oc1ccccc1` (centres unmarked) [Compound 3, diphenyl 1-(1-(3-methyl-2-(5-(2-oxohexahydro-1H-thieno[3,4-d]imidazol-4-yl)pentanamido)butanoyl)pyrrolidine-2-carboxamido)-2-phenylethylphosphonate]: the half-inhibitory concentration (IC50) in assay [1] (setting [3]) was more than 5000 nM; in assay [2] (setting [8]) it was more than 5000 nM; on proteinase 3 (PR3) (setting [5]) it was more than 5000 nM; against cathepsin G (CatG), 258 ± 33 nM; against subtilisin (Sub), 11.6 ± 0.2 nM. In addition, the “Cat G Kobs/[I]” value on cathepsin G (CatG) (setting [9]) is listed as 4.5*10^3 M^-1S^-1. Also, the “ChyTr Kobs/[I]” value at chymotrypsin (ChTry) was 5.6*10^4 M^-1S^-1. In addition, the “Sub Kobs/[I]” value on subtilisin (Sub) is given as 1.0*10^5 M^-1S^-1.
